Paper PMC5432571 (Frontiers in Molecular Neuroscience, 2017)
Where two headings read alike, the source gives them in different places.

What was measured:
[1] = biological target: T1, G254A-α1 GlyR (Homo sapiens, UniProt P23415, G282A); assay: Whole-cell patch-clamp of glycine-induced currents, G254A-α1 GlyR mutant expressed in CHO cells; assay type: cell-based; conditions: for inhibition at 30 µM / inhibition at 100 µM / inhibition at 300 µM: CHO, long application protocol, read-out: inhibition of G254A-α1 GlyR mediated currents; for inhibition at 30 µM: NFA 30 μM; for inhibition at 100 µM: NFA 100 μM; for inhibition at 300 µM: NFA 300 μM
T1 construct: expressed in transfected cells; host or cells: CHO cells
T1 sequence (P23415 29-449 isoform P23415-2 G282A limits assumed): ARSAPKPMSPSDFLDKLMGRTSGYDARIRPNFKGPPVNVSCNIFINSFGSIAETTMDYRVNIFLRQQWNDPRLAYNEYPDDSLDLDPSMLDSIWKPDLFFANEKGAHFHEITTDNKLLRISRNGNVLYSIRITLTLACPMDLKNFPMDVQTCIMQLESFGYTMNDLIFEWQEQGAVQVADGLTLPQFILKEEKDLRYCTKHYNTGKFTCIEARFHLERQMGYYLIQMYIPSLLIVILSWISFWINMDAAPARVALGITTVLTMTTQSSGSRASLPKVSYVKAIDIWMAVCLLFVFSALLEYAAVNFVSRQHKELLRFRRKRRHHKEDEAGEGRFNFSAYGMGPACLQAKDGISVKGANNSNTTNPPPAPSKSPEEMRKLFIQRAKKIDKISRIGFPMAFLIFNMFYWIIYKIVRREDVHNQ
Experimental: (§1) The experiments were carried out on cultured Chinese hamster ovary (CHO) cells obtained from the American Type Tissue Culture Collection (ATCC, Molsheim, France) that were maintained in culture conditions as previously described (Mukhtarov et al., [2013]; Maleeva et al., [2015]).
(§2) One day before transfection, cells were plated on the cover slips (12 mm in diameter) and placed inside 35-mm cell culture dishes with 2 ml of medium. Transfection was performed using the Lipofectamine 3000 protocol (Life Technology, USA). To facilitate identification of transfected cells a green fluorescent protein (GFP) was added to the transfection mixture. For expression of functional heteromeric receptors, cells were simultaneously transfected with cDNAs of α and β subunits in the ratio 1:10. Three hours after the initial exposure of cells to the cDNAs the culture medium was replaced with that containing strychnine (1 μM), which prevents spontaneous activation of GlyRs. Electrophysiological recordings were performed in the fluorescent cells 24–72 h after transfection.
(§3) Whole-cell and outside-out recordings were performed at room temperature (20–25°C) using an EPC-9 amplifier (HEKA Elektronik, Germany). Cells were continuously superfused with external solution containing (mM): NaCl 140, CaCl2 2, KCl 2.8, MgCl2 4, HEPES 20, glucose 10; pH 7.4; 320–330 mOsm. Intracellular solution used for filling recording patch pipettes contained (mM): CsCl 140, CaCl2 6, MgCl2 2, MgATP 2, NaGTP 0.4, HEPES/CsOH 10, BAPTA (tetrapotassium salt) 2; pH 7.3; 290 mOsm. Two different protocols of solutions application were used in this study. […] A “ramp protocol” implies the gradual change of Vhold alternately from −80 to +80 mV and from +80 to −80 mV during 1 s, Vhold was fixed at −80 or +80 mV at the beginning and at the end of the ramp for 500 ms (Figure 2B).
(§4) Recording pipettes were pulled from borosilicate glass capillaries (Harvard Apparatus Ltd, USA) and had resistances of 5–10 MOhm. For the rapid replacement of the solutions, the fast application system was used. Three parallel rectangular tubes (100 × 100 μm) were positioned 40–50 μm above the recorded cell. The movement of the tubes was controlled by a computer-driven fast exchange system (SF 77A Perfusion Fast-Step, Warner, USA) allowing a 10–90% solution exchange in 3–5 ms, as measured by open electrode controls (1/10 external solution/water). Cells with low input resistance (<150 MOhm) and a rapid run-down (>30% with repetitive application) were excluded from analysis.
(§5) Electrophysiological recordings were performed using PatchMaster (HEKA Electronic, Germany) software.
The fractional electrical distance from the external side of the membrane (δ) at which bound NFA blocked the current was calculated using the Woodhull equation: IC50(V)=IC50(0) exp (−δFV/RT), where IC50(V) is IC50 at the given membrane potential, IC50(0) – at 0 mV, V – membrane potential and F, R, T have their usual meanings. δ was determined from a plot of IC50 values against membrane potential.

[2] = biological target: T2, α3 GlyR (Homo sapiens, UniProt O75311); assay: Whole-cell patch-clamp of glycine-induced currents, α3 GlyR expressed in CHO cells; assay type: cell-based; conditions: glycine 100 μM; for inhibition at 30 µM / inhibition at 300 µM: CHO, long application protocol, read-out: inhibition of α3 GlyR-mediated currents; for inhibition at 30 µM: NFA 30 μM; for inhibition at 300 µM: NFA 300 μM
T2 construct: expressed in transfected cells; host or cells: CHO cells
T2 sequence (O75311 34-464): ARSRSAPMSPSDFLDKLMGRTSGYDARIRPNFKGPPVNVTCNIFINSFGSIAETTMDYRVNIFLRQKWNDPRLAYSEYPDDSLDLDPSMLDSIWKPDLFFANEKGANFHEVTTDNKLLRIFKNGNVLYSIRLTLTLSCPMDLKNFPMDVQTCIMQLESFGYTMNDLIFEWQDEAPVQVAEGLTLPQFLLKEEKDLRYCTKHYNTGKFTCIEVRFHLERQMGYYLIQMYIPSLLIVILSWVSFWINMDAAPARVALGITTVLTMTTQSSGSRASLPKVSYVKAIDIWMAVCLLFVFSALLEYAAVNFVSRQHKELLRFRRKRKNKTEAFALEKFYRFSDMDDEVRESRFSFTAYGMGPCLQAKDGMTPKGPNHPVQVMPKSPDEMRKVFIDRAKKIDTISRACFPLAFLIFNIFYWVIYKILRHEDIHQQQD
Experimental: as §1, §2, §3, §4, §5
It is well documented that α3 GlyRs rapidly desensitize (Nikolic et al., [1998]) and this complicates accurate estimation of the NFA blocking potency.

SMILES: O=C(O)c1cccnc1Nc1cccc(C(F)(F)F)c1 [NFA, Niflumic acid]
- IC50 ([1]; +30 mV, glycine 30 μM, representative, read-out: NFA IC50 (representative IC50 curve)): 92 µM
- IC50 ([1]; +30 mV, glycine 100 μM, representative, read-out: NFA IC50 (representative IC50 curve)): 106 µM
- IC50 ([1]; +80 mV, glycine 30 μM, ramp protocol, mean ± SEM, read-out: IC50 of NFA): 64 ± 10 µM
- IC50 ([1]; +80 mV, glycine 30 μM, representative, read-out: NFA IC50 (representative IC50 curve)): 68 µM
- IC50 ([1]; +80 mV, glycine 100 μM, representative, read-out: NFA IC50 (representative IC50 curve)): 57 µM
- inhibition at 30 µM ([1]; Vhold +30 mV, glycine 30 μM): 23 ± 7%
- inhibition at 30 µM ([1]; Vhold −30 mV, glycine 30 μM): 22 ± 4%
- inhibition at 100 µM ([1]; Vhold +30 mV, glycine 30 μM): 43 ± 10%
- inhibition at 100 µM ([1]; Vhold −30 mV, glycine 30 μM): 34 ± 6%
- inhibition at 300 µM ([1]; Vhold +30 mV, glycine 30 μM): 76 ± 4%
- inhibition at 300 µM ([1]; Vhold −30 mV, glycine 30 μM): 52 ± 11%
- IC50 ([1]; MP +80 mV, increased agonist concentration (glycine 100 μM), mean ± SEM, read-out: IC50 of NFA): 58 ± 8 µM
- IC50 ([1]; at negative potentials, glycine 30 μM, ramp protocol, mean ± SEM, read-out: IC50 of NFA): 257 ± 25 µM
- level of the NFA binding site from the extracellular side ([1]; both examined agonist concentrations, Woodhull analysis): ~ 30%
- Fractional electrical distance (δ) from the extracellular side of the membrane ([1]; glycine 30 μM, Woodhull analysis): 0.37 ± 0.04 (n = 9)
- Fractional electrical distance (δ) from the extracellular side of the membrane ([1]; glycine 100 μM, Woodhull analysis): 0.30 ± 0.04 (n = 7)
- Hill coefficient (nH) of NFA interaction ([1]; membrane potential 30 mV, glycine 30 μM): 1.3 ± 0.08
- Hill coefficient (nH) of NFA interaction ([1]; membrane potential 50 mV, glycine 30 μM): 1.36 ± 0.11
- Hill coefficient (nH) of NFA interaction ([1]; membrane potential 70 mV, glycine 30 μM): 1.26 ± 0.1
- Hill coefficient (nH) of NFA interaction ([1]; membrane potential 80 mV, glycine 30 μM): 1.22 ± 0.09
- Hill coefficient (nH) of NFA interaction ([1]; membrane potential −50 mV, glycine 30 μM): 1.37 ± 0.18
- Hill coefficient (nH) of NFA interaction ([1]; membrane potential −70 mV, glycine 30 μM): 1.34 ± 0.1
- Hill coefficient (nH) of NFA interaction ([1]; membrane potential −80 mV, glycine 30 μM): 1.46 ± 0.16
- IC50 ([1]; −30 mV, glycine 30 μM, representative, read-out: NFA IC50 (representative IC50 curve)): 185 µM
- IC50 ([1]; −30 mV, glycine 100 μM, representative, read-out: NFA IC50 (representative IC50 curve)): 190 µM
- IC50 ([1]; −80 mV, glycine 30 μM, representative, read-out: NFA IC50 (representative IC50 curve)): 230 µM
- IC50 ([1]; −80 mV, glycine 100 μM, representative, read-out: NFA IC50 (representative IC50 curve)): 260 µM
- IC50 ([2]; +30 mV, representative, read-out: NFA IC50 (representative IC50 curve)): 23 µM
- IC50 ([2]; +80 mV, representative, read-out: NFA IC50 (representative IC50 curve)): 10 µM
- inhibition at 30 µM ([2]; +30 mV): 62 ± 5%
- inhibition at 30 µM ([2]; −30 mV): 32 ± 4%
- inhibition at 300 µM ([2]; +30 mV): 90 ± 2%
- inhibition at 300 µM ([2]; −30 mV): 86 ± 5%
- IC50 ([2]; MP +80 mV, mean ± SEM, read-out: IC50 of NFA): 16 ± 6 µM
- IC50 ([2]; MP −80 mV, mean ± SEM, read-out: IC50 of NFA): 86 ± 14 µM
- IC50 ([2]; −30 mV, representative, read-out: NFA IC50 (representative IC50 curve)): 78 µM
- IC50 ([2]; −80 mV, representative, read-out: NFA IC50 (representative IC50 curve)): 117 µM
